The text below walks through data of patent publication US8999655B2, “Increase of myeloid microvesicles in the cerebrospinal fluid as biomarker of microglia/macrophage activation in neurological disorders” (Consiglio Nazionale delle Ricerche, priority 2010, dated 2015).

Test [1] concerns Cultured hippocampal neurons. The test is described as follows: Quantification of neuronal damage (PI uptake, annexin-V staining) after Aβ-treated MVs. The following applies: 20 μM CNQX and 100 μM APV applied together during 1 h exposure to Aβ-treated MVs, read 24 h later. In kind it is cell-based. As for the experimental part: (§1) FIG. 12. Cultured hippocampal neurons were loaded with the ratiometric calcium dye FURA-2 for 1 h. During FURA-2 loading, neurons were exposed to microglia-derived microvesicles pre-incubated overnight in neuronal medium in the presence or in the absence of Abeta 1-42 (5 μM). Neurons were then wash in Kreb's ringer and resting calcium levels and calcium responsiveness to glutamate agonists (AMPA 100 μM, NMDA 100 μM) were evaluated using a single cell calcium imaging system. […] PI uptake and fragmentation of neuronal cytoskeleton (C) and staining for annexin-V, quantified in F, indicate that Aβ-treated MVs strongly affect neuronal viability. […] I Quantitative analysis of mean amplitude of calcium responses evoked by AMPA or NMDA in control neurons and neurons exposed to Aβ-treated AD MVs.
Living neurons were exposed annexin-V-FITC, fixed with 4% paraphormaldeyde and counterstained with antibodies direct against the neuronal marker SNAP-25. Apoptotic processes, labelled by annexin-V, were quantified by the Image J software and normalized to SNAP-25 immunoreactivity, as an index of neurite density. […] PI positive nuclei were quantified and normalized to total Hoescht positive nuclei. α-tubulin staining was carried out to evaluate integrity of neuronal cytoskeleton. At least 10 different fields from three independent experiments have been analyzed.

In test [2] the test system is Cultured hippocampal neurons. The test is described as follows: Calcium imaging (FURA-2) of basal cytosolic calcium in neurons exposed to Aβ-treated MVs. In kind it is cell-based. The following applies: APV and CNQX applied together; FIG. 12G. The protocol: as §1
Polychrome V (TILL Photonics, Grafelfing, Germany) was used as a light source. Fura-2 fluorescence images were collected with a PCO Super VGA SensiCam (Axon Instruments, Forest City, Calif., USA) and analyzed with TILL vision software. […] The ratio values in discrete areas of interest were calculated from sequences of images to obtain temporal analyses. Calcium concentrations were expressed as F340/380 fluorescence ratios.

The subject of a further test is Primary mouse microglia. The test is described as follows: Release of AnnexinV+ shed vesicles from ATP-stimulated microglia, measured by FACS. To be noted: FIG. 13. In kind it is cell-based. As for the experimental part:
FIG. 13. FTY720 treatment. Primary mouse microglia was pre-treated, or not, with FTY720, also named fingolimod or Gylenia, currently in course of registration for the treatment of multiple sclerosis, for 30 min., then ATP was added for further 30 min. to induce the release of AnnexinV^+ shed vesicles, as measured by FACS.
Dendrites of neurons exposed to Aβ1-42-treated-MVs have a frequently fragmented or beaded appearance (FIG. 12D), display abnormal cytoplasmic calcium concentration (FIG. 12A) and reduced responsiveness to glutamate agonists (FIG. 12B). […] Similar detrimental effects are induced in cultured neurons by MVs isolated from AD CSF, pre-incubated with Aβ1-42 (FIG. 12H-I). Finally, primary mouse microglia was pre-treated, or not, with FTY720, also named fingolimod or Gylenia (FIG. 13), currently in course of registration for the treatment of multiple sclerosis, for […], then ATP was added for 30 min. to induce the release of AnnexinV^+ shed vesicles, as measured by FACS. […] Therefore, the number of shed vesicles in the CSF of treated patients represents a biomarker of therapeutic efficacy of MS or other neurological disorders therapeutic treatment.
(A flow cytometer gives signals particle by particle.)

Test [3] concerns the target T1, acid sphingomyelinase (A-SMase) (Homo sapiens, UniProt P17405).
T1 sequence (P17405 47-631): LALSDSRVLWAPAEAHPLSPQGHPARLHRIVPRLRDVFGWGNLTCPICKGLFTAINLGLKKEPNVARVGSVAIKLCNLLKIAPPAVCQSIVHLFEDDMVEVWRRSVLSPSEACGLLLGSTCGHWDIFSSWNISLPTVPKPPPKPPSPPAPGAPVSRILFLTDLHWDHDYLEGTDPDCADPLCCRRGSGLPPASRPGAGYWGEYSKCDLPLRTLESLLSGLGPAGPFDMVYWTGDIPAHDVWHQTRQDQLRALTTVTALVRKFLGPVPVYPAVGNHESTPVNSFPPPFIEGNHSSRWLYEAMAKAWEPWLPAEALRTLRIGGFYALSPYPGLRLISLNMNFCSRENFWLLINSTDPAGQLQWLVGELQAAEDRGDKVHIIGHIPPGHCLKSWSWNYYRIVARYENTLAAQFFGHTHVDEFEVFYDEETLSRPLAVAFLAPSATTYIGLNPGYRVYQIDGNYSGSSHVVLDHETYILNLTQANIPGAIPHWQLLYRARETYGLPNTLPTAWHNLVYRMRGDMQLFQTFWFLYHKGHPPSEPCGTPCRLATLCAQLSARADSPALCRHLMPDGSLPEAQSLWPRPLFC
To be noted: recently identified; mechanism similar to tricyclic antidepressants; cited from earlier work.

Test [4] concerns isolectin IB-4. The test is described as follows: Specificity of IB4-FITC labelling of primary microglia (fluorescence microscopy). To be noted: IB4-FITC pretreated with 1M melibiose, FIG. 5A. In kind it is binding, Baindeiraea Simplicifolia. An excerpt: (§2) FIG. 5. IB-4 labeling of microglia/macrophage-derived MVs is specific. A. Differential interference contrast microscopy (right panels) and fluorescent images (left panels) of primary microglia labelled in vivo with IB4-FITC.
(§3) CSF collected from naïve mice or mice exposed to different inflammatory treatments was directly stained with FITC-conjugate Isolectin B4 from Baindeiraea Simplicifolia, (IB4-FITC, SIGMA), and the phosphatydil serine ligand annexin-V in 1% BSA. Specificity of IB4 labelling was evaluated by treating IB4-FITC with 1 M melibiose (6-O-a-D-galactopyranosyl-D-glucose, Sigma M5500) for 30 min before addition to Shed MVs (FIG. 9) as previously described (Ayoub A E et al.). CSF was then diluted in PBS buffer and labelled MVs were acquired within a fixed time interval on a Canto II HTS flow cytometer (Becton Dickinson). Data were analysed using FCS 3 software (Becton Dickinson, Franklin Lakes, N.J., USA). A gate was established on size using beads of 0.5-2 μm. Whithin this gate IB4/annexin-V double positive events (number of events/μl) were evaluated as a parameter of MVs concentration in the CSF. […] IB4 and annexin-V double positive events were evaluated as a parameter of shed MVs concentration while IB4 and CD63 double positive events was evaluated as a parameter of exosome concentration. […]

Test [5] has as its system isolectin IB-4. The test is described as follows: Specificity of IB4-FITC labelling of MVs shed from N9 microglia (flow cytometry). In kind it is binding, Baindeiraea Simplicifolia. To be noted: melibiose pretreatment, FACS, FIG. 5B.
From the text: as §2, §3

For `N[C@@H](CCCP(=O)(O)O)C(=O)O` [APV], in test [1], the “neuronal damage caused by Aβ-treated MVs (PI uptake, annexin-V staining)” value is given as “strongly prevented”. The “increase in cytoplasmic calcium level induced by Aβ-treated MVs” value in test [2] was “almost completely inhibited”.
With `N#Cc1cc2[nH]c(=O)c(=O)[nH]c2cc1[N+](=O)[O-]` [CNQX], in test [1], the “neuronal damage caused by Aβ-treated MVs (PI uptake, annexin-V staining)” value was “strongly prevented”. For the same compound, the “increase in cytoplasmic calcium level induced by Aβ-treated MVs” value in test [2] is on record as “almost completely inhibited”.
Turning to `CCCCCCCCc1ccc(CCC(N)(CO)CO)cc1` [FTY720], in the test with Primary mouse microglia, the MP shedding entry was “potently inhibits MP shedding”. Also, the “release of AnnexinV+ shed vesicles” value is listed as “completely prevented the release of shed vesicles above background levels” in the test on Primary mouse microglia (FTY720 pre-treatment 30 min, then ATP for further 30 min) and “completely prevented the release of shed vesicles above background levels” in the test on Primary mouse microglia (FTY720 pre-treatment 18 h, then ATP 30 min). For the same compound, the “inhibition of A-SMase” value in test [3] is “inhibitor of A-SMase”.
As to `OC[C@H]1O[C@H](OC[C@H]2OC(O)[C@H](O)[C@@H](O)[C@@H]2O)[C@H](O)[C@@H](O)[C@H]1O` (stereo partly drawn) [melibiose, 6-O-a-D-galactopyranosyl-D-glucose], the “IB4-FITC binding to the cell surface” value in the test with isolectin IB-4 [4] is “completely prevents its binding to the cell surface”. Besides, the “IB4-FITC labeling of intact MVs” value with isolectin IB-4 [5] is “completely abolished IB4-FITC labeling”.
